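GI50: concentration for 50% inhibition of growth. TGI denotes the concentration required for complete inhibition of growth.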
Legend:
Test in all cases: NCI anticancer screen, dose series, 384-well format
NCI/ADR-RES ovarian = system: NCI/ADR-RES ovarian
HL-60(TB) leukemia = system: HL-60(TB) leukemia
DU-145 prostate = system: DU-145 prostate
KM12 colon = system: KM12 colon
A549 NSCLC = system: A549 NSCLC
NCI-H322M lung = system: NCI-H322M lung
SR leukemia = system: SR leukemia
HCC-2998 colon = system: HCC-2998 colon
SF-539 CNS = system: SF-539 CNS
T-47D breast = system: T-47D breast
OVCAR-5 ovarian = system: OVCAR-5 ovarian
SW-620 colon = system: SW-620 colon
HCT-15 colon = system: HCT-15 colon
HCT-116 colon = system: HCT-116 colon
A498 renal = system: A498 renal
OVCAR-8 ovarian = system: OVCAR-8 ovarian
SK-OV-3 ovarian = system: SK-OV-3 ovarian
SK-MEL-2 melanoma = system: SK-MEL-2 melanoma
OVCAR-4 ovarian = system: OVCAR-4 ovarian
NCI-H460 NSCLC = system: NCI-H460 NSCLC
HOP-62 NSCLC = system: HOP-62 NSCLC
CAKI-1 renal = system: CAKI-1 renal
MDA-MB-468 breast = system: MDA-MB-468 breast
ACHN renal = system: ACHN renal
MDA-MB-435 melanoma = system: MDA-MB-435 melanoma
SF-268 CNS = system: SF-268 CNS
K-562 leukemia = system: K-562 leukemia
SK-MEL-28 melanoma = system: SK-MEL-28 melanoma
NCI-H226 lung = system: NCI-H226 lung

SMILES: NCCCC[C@@H]1NC(=O)[C@H](CC(=O)O)NC(=O)CNC(=O)[C@H](CCCN=C(N)N)NC(=O)[C@@H](N)CSSC[C@@H](C(=O)O)NC(=O)[C@H](CC(=O)O)NC(=O)[C@@H]2CCCN2C(=O)CNC1=O
- GI50 (NCI/ADR-RES ovarian): > 100 µM
- TGI (NCI/ADR-RES ovarian): > 100 µM
- GI50 (HL-60(TB) leukemia): > 100 µM
- TGI (HL-60(TB) leukemia): > 100 µM
- GI50 (DU-145 prostate): > 100 µM
- TGI (DU-145 prostate): > 100 µM
- GI50 (KM12 colon): > 100 µM
- TGI (KM12 colon): > 100 µM
- GI50 (A549 NSCLC): > 100 µM
- TGI (A549 NSCLC): > 100 µM
- GI50 (NCI-H322M lung): > 100 µM
- TGI (NCI-H322M lung): > 100 µM
- GI50 (SR leukemia): > 100 µM
- TGI (SR leukemia): > 100 µM
- GI50 (HCC-2998 colon): > 100 µM
- TGI (HCC-2998 colon): > 100 µM
- GI50 (SF-539 CNS): > 100 µM
- TGI (SF-539 CNS): > 100 µM
- GI50 (T-47D breast): > 100 µM
- TGI (T-47D breast): > 100 µM
- GI50 (OVCAR-5 ovarian): > 100 µM
- TGI (OVCAR-5 ovarian): > 100 µM
- GI50 (SW-620 colon): > 100 µM
- TGI (SW-620 colon): > 100 µM
- GI50 (HCT-15 colon): > 100 µM
- TGI (HCT-15 colon): > 100 µM
- GI50 (HCT-116 colon): > 100 µM
- TGI (HCT-116 colon): > 100 µM
- GI50 (A498 renal): > 100 µM
- TGI (A498 renal): > 100 µM
- GI50 (OVCAR-8 ovarian): > 100 µM
- TGI (OVCAR-8 ovarian): > 100 µM
- GI50 (SK-OV-3 ovarian): > 100 µM
- TGI (SK-OV-3 ovarian): > 100 µM
- GI50 (SK-MEL-2 melanoma): > 100 µM
- TGI (SK-MEL-2 melanoma): > 100 µM
- GI50 (OVCAR-4 ovarian): > 100 µM
- TGI (OVCAR-4 ovarian): > 100 µM
- GI50 (NCI-H460 NSCLC): > 100 µM
- TGI (NCI-H460 NSCLC): > 100 µM
- GI50 (HOP-62 NSCLC): > 100 µM
- TGI (HOP-62 NSCLC): > 100 µM
- GI50 (CAKI-1 renal): > 100 µM
- TGI (CAKI-1 renal): > 100 µM
- GI50 (MDA-MB-468 breast): > 100 µM
- TGI (MDA-MB-468 breast): > 100 µM
- GI50 (ACHN renal): > 100 µM
- TGI (ACHN renal): > 100 µM
- GI50 (MDA-MB-435 melanoma): > 100 µM
- TGI (MDA-MB-435 melanoma): > 100 µM
- GI50 (SF-268 CNS): > 100 µM
- TGI (SF-268 CNS): > 100 µM
- GI50 (K-562 leukemia): > 100 µM
- TGI (K-562 leukemia): > 100 µM
- GI50 (SK-MEL-28 melanoma): > 100 µM
- TGI (SK-MEL-28 melanoma): > 100 µM
- GI50 (NCI-H226 lung): > 100 µM

From PubChem BioAssay (NCI)
